In patent US8026245B2, “HIV replication inhibiting purine derivatives” (Janssen Pharmaceutica N.V., priority 2003, dated 2011):

Columns and labels:
HIV-1 [1] = conditions: Method A; for pEC50 (−logEC50): MT-4 cells, HIV-infected, MTT, 50% protection; for pSI (pCC50-pEC50): selectivity index, ratio of CC50 to EC50
Description: An […] T4-cell line, MT-4, which was previously shown (Koyanagi et al., Int. J. Cancer, 36, 445-451, 1985) to be highly susceptible to and permissive for HIV infection, served as the target cell line. Inhibition of the HIV-induced cytopathic effect was used as the end point. The viability of both HIV- and mock-infected cells was assessed spectrophotometrically via the in situ reduction of 3-(4,5-dimethylthiazol-2-yl)-2,5-diphenyltetrazolium bromide (MTT). The 50% cytotoxic concentration (CC50 in M) was defined as the concentration of compound that reduced the absorbance of the mock-infected control sample by 50%. The percent protection achieved by the compound in HIV-infected cells was calculated by the following formula:
[formula] whereby (ODT)HIV is the optical density measured with a given concentration of the test compound in HIV-infected cells; (ODC)HIV is the optical density measured for the control untreated HIV-infected cells; (ODC)MOCK is the optical density measured for the control untreated mock-infected cells; all optical density values were determined at 540 nm. The dose achieving 50% protection according to the above formula was defined as the 50% effective concentration (EC50 in M). The ratio of CC50 to EC50 was defined as the selectivity index (SI). Method B

mock-infected MT-4 cells = assay type: cell-based
Description: An HIV-1 transformed T4-cell line, MT-4, which was previously shown (Koyanagi et al., Int. J. Cancer, 36, 445-451, 1985) to be highly susceptible to and permissive for HIV infection, served as the target cell line. Inhibition of the HIV-induced cytopathic effect was used as the end point. The viability of both HIV- and mock-infected cells was assessed spectrophotometrically via the in situ reduction of 3-(4,5-dimethylthiazol-2-yl)-2,5-diphenyltetrazolium bromide (MTT). The 50% cytotoxic concentration (CC50 in M) was defined as the concentration of compound that reduced the absorbance of the mock-infected control sample by 50%. The percent protection achieved by the compound in HIV-infected cells was calculated by the following formula:

HIV-1 [2] = experiment: microbe, parasite or virus in culture; conditions: Human immunodeficiency virus 1, MT4, read-out: pEC50 (−logEC50) (converted)
HIV-1 [3] = conditions: Method B; selectivity index, ratio of CC50 to EC50
[4] = Method B: cytotoxicity in mock-infected MT-4 cells engineered with GFP under a constitutional promotor; assay type: cell-based; conditions: human; Method B; mock-infected MT-4 cells with GFP, fluorescence reduced by 50%; read-out: pCC50 (−logCC50) (converted)
Description: In these cells, engineered with GFP (and an HIV-specific promotor), ongoing HIV-infection was measured fluorometrically. Cytotoxicity is measured in the same cells, but engineered with GFP under a constitutional promotor. The infection (or inhibition thereof) of HIV infected cells and the fluorescence of mock-infected cells is assessed by the fluorescent GFP signal generated by the two above mentioned cell lines.
The 50% cytotoxic concentration (CC50 in μM) was defined as the concentration of compound that reduced fluorescence of the mock-infected cells by 50%.

Cc1cc(C)c(Oc2nc(Nc3ccc(C#N)cc3)nc3[nH]cnc23)c(C)c1 [Compound 23]
pEC50 (−logEC50) (HIV-1 [1]): 8.2 M | pSI (pCC50-pEC50) (HIV-1 [1]): <−3.6 | pCC50 (−logCC50) (mock-infected MT-4 cells): <4.6

Cc1cc(C)c(Nc2nc(Nc3ccc(C#N)cc3)nc3[nH]cnc23)c(C)c1 [Compound 24]
pEC50 (−logEC50) (HIV-1 [1]): 8.4 M | pSI (pCC50-pEC50) (HIV-1 [1]): −4.1 | pCC50 (−logCC50) (mock-infected MT-4 cells): 4.3

COc1cc(C)c(Nc2nc(Nc3ccc(C#N)cc3)nc3[nH]cnc23)c(C)c1 [Compound 25]
pEC50 (−logEC50) (HIV-1 [1]): 8.5 M | pSI (pCC50-pEC50) (HIV-1 [1]): <−4 | pCC50 (−logCC50) (mock-infected MT-4 cells): <4.5

COc1ccc(Cn2cnc3nc(Nc4ccc(C#N)cc4)nc(Oc4c(C)cc(/C=C/C#N)cc4C)c32)cc1 [Compound 4]
EC50 (HIV-1 [2]): 3.98 nM | pSI (pEC50 − pCC50) (HIV-1 [3]): −3.4 | CC50 [4]: 10000 nM

CCN(C)C(=O)/C=C/c1cc(C)c(Oc2nc(Nc3ccc(C#N)cc3)nc3nc[nH]c23)c(C)c1 [Compound 5]
EC50 (HIV-1 [2]): 3.16 nM | pSI (pEC50 − pCC50) (HIV-1 [3]): −3.2 | CC50 [4]: 5010 nM

CCN(C)C(=O)/C=C/c1cc(C)c(Oc2nc(Nc3ccc(C#N)cc3)nc3ncn(Cc4ccc(OC)cc4)c23)c(C)c1 [Compound 1]
EC50 (HIV-1 [2]): 3.98 nM | pSI (pEC50 − pCC50) (HIV-1 [3]): <−3.8 | CC50 [4]: > 25100 nM

C/C(=C\C#N)c1cc(C)c(Nc2nc(Nc3ccc(C#N)cc3)nc3c2ncn3C)c(C)c1 [Compound 57]
EC50 (HIV-1 [2]): 1 nM | pSI (pEC50 − pCC50) (HIV-1 [3]): >4.4 | CC50 [4]: > 25100 nM

Cc1cc(C#N)cc(C)c1Oc1nc(Nc2ccc(C#N)cc2)nc2[nH]cnc12 [Compound 28]
pEC50 (−logEC50) (HIV-1 [1]): 9.0 M | pSI (pCC50-pEC50) (HIV-1 [1]): <−4.4 | pCC50 (−logCC50) (mock-infected MT-4 cells): <4.6

CCn1cnc2c(Nc3c(C)cc(/C=C/C#N)cc3OC)nc(Nc3ccc(C#N)cc3)nc21 [Compound 48]
EC50 (HIV-1 [2]): 0.631 nM | pSI (pEC50 − pCC50) (HIV-1 [3]): >4.6 | CC50 [4]: > 25100 nM
